# Measurements: US8420122B2, “Process for the precipitation and isolation of 6,6-dimethyl-3-aza-bicyclo [3.1.0] hexane-amide compounds by controlled precipitation and pharmaceutical formulations containing same” (Merck Sharp & Dohme Corp., priority 2006, dated 2013)
# Like-named read-outs stand apart in the source and are kept apart here.
# Legend:
# [1] = BET surface area (bulk surface area); assay type: physicochemical; details: for bulk surface area after distillation step: final granulate product
# [2] = Aggregated / median particle size and size distribution; assay type: physicochemical; details: for Aggregated particle size: additional runs A, B, C (mixing Tee)
# Protocol: As used herein “median precipitated particle size” “median aggregate particle size” and “particulate size distribution” are determined by Laser Diffraction […] measurements.
# [3] = Comparative PK Results-2: Day 5 multiple-dose pharmacokinetics; assay type: in vivo, human; details: for Tmax: read-out: Tmax, median; for half-life: read-out: t1/2, mean (converted)
# Protocol: Pharmacokinetic samples for the determination of plasma concentrations of the compound of Formula B were collected on Day 5 of each period. PK samples were collected predose (0 hour), 1, 2, 3, 4, 6, 8, 12, and 24-hours postdose.
# QT/QTc intervals = assay: QT/QTc study, mean QTcF change from time-matched baseline; details: for QT interval (mean QTcF change from time-matched baseline): Day 5, relative to placebo
# Protocol: A study was conducted to evaluate the effect of both a therapeutic (800 mg TID) and a supratherapeutic (1200 mg TID) dose of the compound of Formula B at steay-state on QT/QTc intervals, as measured by mean maximum change from time-matched baseline ECG recordings compared to placebo.
# Thirty-six subjects who met entry criteria received one of four study treatments for Days 1 to 5 of each treatment period. This study was conducted in a 4-way crossover manner so that subjects were randomized to receive the 4 study treatments in one of four sequences. Prior to treatment crossover, subjects completed an approximately 1-week outpatient washout period.
# [4] = Bulk density / tapped density; assay type: physicochemical
# Protocol: The particulate prepared above was recovered by pressure filtration and vacuum dried under house vacuum (approximately 60 to 70 torr) for 2 hours at 25 C followed by 8 hours of house vacuum at 35 C. The product was finish-dried at 45 C under house vacuum for an additional 16 hours. The dried particulate was evaluated and found to have a primary particle size ranging from less than 1 micron up to about 2 microns. The specific surface area (BET absorption method) was determined to be about 19.11 m2/g. The bulk density of isolated material was determined by weighing a 25 ml (unpacked) sample.
# [5] = Chord length by Focused Beam Reflectance Measurements (FBRM); assay type: physicochemical; details: Example I first run, slurry, 0.41 M MTBE solution, 20° C.
# Protocol: (§1) For the Examples which follow, particle size information was acquired by measuring the particulate material produced in the slurry using Focused Beam Reflectance Measurements (FBRM) performed with a Lasentec probe from Mettler Toledo in accordance with manufacturers directions for obtaining such measurements. Measurements were carried out on a sample of the slurry as obtained from the holding tank prior to vacuum distillation. The procedure and equipment can measure particulate materials over a size range of from 1 micron up to 1000 microns. Primary particle size was characterized qualitatively by Scanning Electron Microscopy (SEM). Changes in particle aggregation and aggregate morphology were observed by SEM under various conditions to determine softening point of the precipitated material. For SEM determination of softening point, a sample of the slurry was obtained periodically at each temperature interval as the slurry was heated. The solids in the sample were collected by filtration, dried under vacuum for 1 to 2 hours and the dried sample was examined using conventional SEM. […] The softening point was inferred from the sampling temperature at which the precipitate began to show loss of nodular particle appearance when examined by SEM in this manner.
# [6] = Softening point of precipitate (FBRM during controlled heating); assay type: physicochemical
# Protocol: as §1
# Verified by SEM observations, it was shown also that softening point could be determined from FBRM measurements (taken in accordance with manufactures instructions) made on a sample of the slurry undergoing controlled heating. […] FBRM measurements were obtained continuously during the heating cycle and the softening point was determined to be the temperature corresponding to the maxima in the particle count curve over the heating regime.
# A precipitate slurry of the compound of Formula B was prepared by setting the flow control valves to supply 3400 ml/min. of n-heptane and 840 ml/min of the MTBE/compound of Formula B solution. […] An aliquot of the slurry thus produced was also evaluated to determine the softening point of the precipitate therein. […] In this manner the softening temperature was determined to be at 36.2 C.
# [7] = Primary particle size and morphology by Scanning Electron Microscopy (SEM); assay type: physicochemical
# Protocol: As used herein “primary particle” is the initially formed particles nucleated by combining a solution and anti-solvent. “Primary particle size” refers to the size of a primary particle and is determined by Scanning Electron Microscopy (SEM).
# For the Examples which follow, particle size information was acquired by measuring the particulate material produced in the slurry using Focused Beam Reflectance Measurements (FBRM) performed with a Lasentec probe from Mettler Toledo in accordance with manufacturers directions for obtaining such measurements. Measurements were carried out on a sample of the slurry as obtained from the holding tank prior to vacuum distillation. The procedure and equipment can measure particulate materials over a size range of from 1 micron up to 1000 microns. Primary particle size was characterized qualitatively by Scanning Electron Microscopy (SEM). Changes in particle aggregation and aggregate morphology were observed by SEM under various conditions to determine softening point of the precipitated material. For SEM determination of softening point, a sample of the slurry was obtained periodically at each temperature interval as the slurry was heated. The solids in the sample were collected by filtration, dried under vacuum for 1 to 2 hours and the dried sample was examined using conventional SEM. […]
# [8] = additional runs A, B, C, precipitate before distillation
# [9] = 800 mg TID, Day 5, healthy subjects, n = 31
# [10] = human, plasma, oral, 800 mg TID, Day 5, healthy subjects, n = 31
# [11] = human, plasma, oral, 1200 mg TID, Day 5, healthy subjects, n = 35
# [12] = Comparative Example I, stirred batch reactor
# [13] = Example I first run, dried particulate
# [14] = Example I second run, isolated material
structure (smiles),measurement,setting,value
CC(C)(C)NC(=O)NC(C(=O)N1CC2C([C@H]1C(=O)NC(CC1CCC1)C(=O)C(N)=O)C2(C)C)C(C)(C)C (stereo partly shown) [Example A1],BET Surface area,[1]; [8],30.19 m^2/g
same,Aggregated particle size,[2],10-20 microns
CC(C)(C)NC(=O)NC(C(=O)N1CC2C([C@H]1C(=O)NC(CC1CCC1)C(=O)C(N)=O)C2(C)C)C(C)(C)C (stereo partly shown) [Example A2],BET Surface area,[1]; [8],16.44 m^2/g
same,Aggregated particle size,[2],10-20 microns
CC(C)(C)NC(=O)NC(C(=O)N1CC2C([C@H]1C(=O)NC(CC1CCC1)C(=O)C(N)=O)C2(C)C)C(C)(C)C (stereo partly shown) [Example A3],BET Surface area,[1]; [8],17.41 m^2/g
same,Aggregated particle size,[2],20-30 microns
CC(C)(C)NC(=O)NC(C(=O)N1CC2C([C@H]1C(=O)NC(CC1CCC1)C(=O)C(N)=O)C2(C)C)C(C)(C)C (stereo partly shown) [Example B1],BET Surface area,[1]; [8],32.75 m^2/g
same,Aggregated particle size,[2],10-20 microns
CC(C)(C)NC(=O)NC(C(=O)N1CC2C([C@H]1C(=O)NC(CC1CCC1)C(=O)C(N)=O)C2(C)C)C(C)(C)C (stereo partly shown) [Example B2],BET Surface area,[1]; [8],25.68 m^2/g
same,Aggregated particle size,[2],10-20 microns
CC(C)(C)NC(=O)NC(C(=O)N1CC2C([C@H]1C(=O)NC(CC1CCC1)C(=O)C(N)=O)C2(C)C)C(C)(C)C (stereo partly shown) [Example B3],BET Surface area,[1]; [8],32.00 m^2/g
same,Aggregated particle size,[2],10-20 microns
CC(C)(C)NC(=O)NC(C(=O)N1CC2C([C@H]1C(=O)NC(CC1CCC1)C(=O)C(N)=O)C2(C)C)C(C)(C)C (stereo partly shown) [Example B4],BET Surface area,[1]; [8],24.24 m^2/g
CC(C)(C)NC(=O)NC(C(=O)N1CC2C([C@H]1C(=O)NC(CC1CCC1)C(=O)C(N)=O)C2(C)C)C(C)(C)C (stereo partly shown) [Example C1],BET Surface area,[1]; [8],24.85 m^2/g
same,bulk surface area after distillation step,[1],6.13 m^2/g
same,Aggregated particle size,[2],0.25-25.5 microns
CC(C)(C)NC(=O)NC(C(=O)N1CC2C([C@H]1C(=O)NC(CC1CCC1)C(=O)C(N)=O)C2(C)C)C(C)(C)C (stereo partly shown) [Example C2],BET Surface area,[1]; [8],32.41 m^2/g
same,bulk surface area after distillation step,[1],6.31 m^2/g
same,Aggregated particle size,[2],0.25-18 microns
CC(C)(C)NC(=O)NC(C(=O)N1CC2C([C@H]1C(=O)NC(CC1CCC1)C(=O)C(N)=O)C2(C)C)C(C)(C)C (stereo partly shown) [Example C3],Aggregated particle size,[2],10-20 microns
CC(C)(C)NC(=O)NC(C(=O)N1CC2C([C@H]1C(=O)NC(CC1CCC1)C(=O)C(N)=O)C2(C)C)C(C)(C)C (stereo partly shown) [Example C4],Aggregated particle size,[2],10-20 microns
"CC(C)(C)NC(=O)NC(C(=O)N1CC2C([C@H]1C(=O)NC(CC1CCC1)C(=O)C(N)=O)C2(C)C)C(C)(C)C (stereo partly shown) [compound of Formula B, 3-[2-(3-tert-Butyl-ureido)-3,3-dimethyl-butyryl]-6,6-dimethyl-3-aza-bicyclo[3.1.0]hexane-2-carboxylic acid (2-carbamoyl-1-cyclobutylmethyl-2-oxo-ethyl)-amide]","CL/F, mean",[3]; [9],158 L/h
same,"Cmin, mean",[3]; [9],61.9 ng/mL
same,"CL/F, mean","[3]; 1200 mg TID, Day 5, healthy subjects, n = 35",196 L/h
same,AUC,"[3]; human, plasma, oral, 800 mg, 800 mg TID, Day 5, healthy subjects, n = 31, read-out: AUC(τ), mean",5320 ng·h/mL
same,Cmax,"[3]; human, plasma, oral, 800 mg, 800 mg TID, Day 5, healthy subjects, n = 31, sum of diastereomers, read-out: Cmax, mean",1690 ng/mL
same,AUC,"[3]; human, plasma, oral, 800 mg, 800 mg TID, Day 5, read-out: Individual AUC(τ) values, range",3250 to 8900 ng·h/mL
same,Cmax,"[3]; human, plasma, oral, 800 mg, 800 mg TID, Day 5, read-out: Individual Cmax values, range",1150 to 2500 ng/mL
same,AUC,"[3]; human, plasma, oral, 1200 mg, 1200 mg TID, Day 5, healthy subjects, n = 35, read-out: AUC(τ), mean",6500 ng·h/mL
same,Cmax,"[3]; human, plasma, oral, 1200 mg, 1200 mg TID, Day 5, healthy subjects, n = 35, sum of diastereomers, read-out: Cmax, mean",1940 ng/mL
same,AUC,"[3]; human, plasma, oral, 1200 mg, 1200 mg TID, Day 5, read-out: Individual AUC(τ) values, range",2500 to 9400 ng·h/mL
same,Cmax,"[3]; human, plasma, oral, 1200 mg, 1200 mg TID, Day 5, read-out: Individual Cmax values, range",1100 to 3150 ng/mL
same,Vd/F,[3]; [10],530 L
same,Tmax,[3]; [10],2 h
same,half-life,[3]; [10],2.31 h
same,Vd/F,[3]; [11],879 L
same,concentration at 5 day,"[3]; human, plasma, oral, 1200 mg TID, Day 5, healthy subjects, n = 35, read-out: Cmin, mean",79.9 ng/mL
same,Tmax,[3]; [11],2 h
same,half-life,[3]; [11],3.01 h
same,QT interval (mean QTcF change from time-matched baseline),QT/QTc intervals; 800 mg therapeutic dose (LD) TID,does not prolong the QT interval
same,QT interval (mean QTcF change from time-matched baseline),QT/QTc intervals; 1200 mg supratherapeutic dose (HD) TID,does not prolong the QT interval
same,BET Surface area,[1]; [12],1.76 m^2/g
same,specific surface area (BET absorption method),[1]; [13],about 19.11 m2/g
same,average bulk surface area (BET),[1]; [14],about 10.3 m^2/g
same,bulk surface area,[1]; Example II precipitate,8.14 m^2/g
same,bulk surface area,[1]; Example III precipitate,7.2 m^2/g
same,bulk density,[4]; [12],0.16 g/mL
same,bulk density,"[4]; Example I first run, isolated material",0.3 g/mL
same,bulk density average,"[4]; Example I second run, isolated particulate",0.191 g/cm³
same,bulk density,[4]; Example II precipitate,0.23 g/mL
same,bulk density,[4]; Example III precipitate,0.18 g/mL
same,average chord length of agglomerated particulate,[5],15.8 microns
same,softening point of the wet cake,[6]; [12],below 30 °C
same,softening temperature,"[6]; Example I first run, slurry aliquot heated 1 C/min",36.2 C
same,softening point,"[6]; Example I second run, slurry distilled to about 35% of original volume",51.6 °C
same,agglomerated average particle size,[2]; [14],11 microns
same,median particulate size,[2]; Example II precipitate,1.57 microns
same,median particulate size,[2]; Example III precipitate,1.46 microns
same,primary particle size,[7]; [13],less than 1 micron up to about 2 microns
same,primary particle size,"[7]; Example I second run, after distillation, isolated material",less than 1 micron
"COc1c(N2C[C@@H]3CCCN[C@@H]3C2)c(F)cc2c(=O)c(C(=O)O)cn(C3CC3)c12 [moxifloxacin, reference compound]",QT/QTc interval (mean QTcF change from time-matched baseline),"QT/QTc intervals; 400 mg QD, positive control",lengthened QT/QTc interval
